Measurements as given in US20230355578A1, “PHARMACEUTICAL COMBINATIONS OF STATINS AND FIBRATES FOR THE TREATMENT AND PREVENTION OF […] AND CARDIOVASCULAR DISEASE” (LABORATORIOS SILANES S.A. DE C.V., priority 2020, published 2023).
Like-named read-outs stand apart in the source and are kept apart here.

How the values were obtained:
P-gp = P-gp (Homo sapiens, UniProt P08183); conditions: Wong, 2006, Yamazaki, 2005; cited from earlier work
OATP1B1 = target: T1, OATP1B1 (Homo sapiens, UniProt Q9Y6L6); conditions: Wong, 2006, Yamazaki, 2005; cited from earlier work
T1 sequence (Q9Y6L6 1-691): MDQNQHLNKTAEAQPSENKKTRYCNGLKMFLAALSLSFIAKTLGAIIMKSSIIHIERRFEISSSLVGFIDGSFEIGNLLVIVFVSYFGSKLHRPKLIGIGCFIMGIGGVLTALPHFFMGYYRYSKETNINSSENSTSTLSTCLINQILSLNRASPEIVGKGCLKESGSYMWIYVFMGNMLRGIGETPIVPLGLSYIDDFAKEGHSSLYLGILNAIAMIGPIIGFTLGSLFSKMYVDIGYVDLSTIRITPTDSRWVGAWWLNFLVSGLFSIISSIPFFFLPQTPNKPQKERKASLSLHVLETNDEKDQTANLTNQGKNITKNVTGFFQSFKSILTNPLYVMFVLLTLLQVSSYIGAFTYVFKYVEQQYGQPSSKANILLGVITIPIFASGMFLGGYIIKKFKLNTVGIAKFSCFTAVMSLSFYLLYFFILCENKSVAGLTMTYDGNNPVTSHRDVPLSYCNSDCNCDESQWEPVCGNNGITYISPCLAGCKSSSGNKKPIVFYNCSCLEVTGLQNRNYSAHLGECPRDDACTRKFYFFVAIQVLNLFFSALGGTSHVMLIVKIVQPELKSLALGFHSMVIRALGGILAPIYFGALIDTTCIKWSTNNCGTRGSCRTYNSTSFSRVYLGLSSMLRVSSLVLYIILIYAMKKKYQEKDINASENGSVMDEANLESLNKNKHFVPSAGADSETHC

cytochrome P450 = conditions: Wong, 2006, Yamazaki, 2005; cited from earlier work
[1] = cited from earlier work
[2] = Particle size distribution by laser beam diffraction; format: physicochemical
Experimental: The determination of the particle size distribution by laser beam diffraction for micronized fenofibrate was carried out using a DPS module in a particle size analyzer.
Determination of particle size distribution by laser beam diffraction was carried out for micronized fenofibrate by placing 0.5 g of the raw material in a sample holder and using a DPS module in the particle size analyzer to obtain an obscuration of 4-7%. The determination is made in duplicate.

Sequence of P-gp (P08183 whole entry): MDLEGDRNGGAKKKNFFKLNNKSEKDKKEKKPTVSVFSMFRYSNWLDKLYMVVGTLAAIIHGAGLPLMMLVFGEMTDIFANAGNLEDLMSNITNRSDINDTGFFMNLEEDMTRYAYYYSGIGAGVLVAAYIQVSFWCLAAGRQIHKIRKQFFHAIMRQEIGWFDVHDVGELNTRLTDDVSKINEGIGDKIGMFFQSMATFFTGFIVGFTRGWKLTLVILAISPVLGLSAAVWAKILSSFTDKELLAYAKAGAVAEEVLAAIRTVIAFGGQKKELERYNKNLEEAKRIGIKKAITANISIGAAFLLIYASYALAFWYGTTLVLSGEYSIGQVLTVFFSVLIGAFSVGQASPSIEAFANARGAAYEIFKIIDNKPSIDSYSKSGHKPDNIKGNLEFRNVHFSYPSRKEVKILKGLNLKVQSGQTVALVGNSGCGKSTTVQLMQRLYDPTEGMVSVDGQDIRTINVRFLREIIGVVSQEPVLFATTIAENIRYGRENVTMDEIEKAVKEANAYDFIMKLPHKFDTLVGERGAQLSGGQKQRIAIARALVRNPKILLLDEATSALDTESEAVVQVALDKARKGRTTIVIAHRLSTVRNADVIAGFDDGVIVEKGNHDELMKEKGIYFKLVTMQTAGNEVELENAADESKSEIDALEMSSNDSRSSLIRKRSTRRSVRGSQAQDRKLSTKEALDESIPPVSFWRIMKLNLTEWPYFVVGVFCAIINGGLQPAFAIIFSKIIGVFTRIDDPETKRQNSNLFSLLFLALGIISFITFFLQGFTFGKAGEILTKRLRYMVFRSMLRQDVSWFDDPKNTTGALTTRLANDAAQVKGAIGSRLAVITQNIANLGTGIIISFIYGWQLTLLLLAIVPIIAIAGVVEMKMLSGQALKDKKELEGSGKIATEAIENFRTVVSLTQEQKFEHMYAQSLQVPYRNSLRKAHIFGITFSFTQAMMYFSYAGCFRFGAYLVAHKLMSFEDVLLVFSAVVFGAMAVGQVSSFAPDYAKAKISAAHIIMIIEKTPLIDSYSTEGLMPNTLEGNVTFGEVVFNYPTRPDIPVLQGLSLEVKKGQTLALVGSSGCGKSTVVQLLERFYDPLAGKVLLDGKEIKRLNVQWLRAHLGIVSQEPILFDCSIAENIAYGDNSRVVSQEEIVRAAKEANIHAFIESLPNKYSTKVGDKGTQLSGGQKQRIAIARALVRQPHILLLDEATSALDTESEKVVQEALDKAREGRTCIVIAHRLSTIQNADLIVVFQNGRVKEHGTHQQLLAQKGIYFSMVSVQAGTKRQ

Row | particle size distribution (100%) [2] | particle size distribution (d10) [2] [μm] | particle size distribution (d50) [2] [μm] | particle size distribution (d90) [2] [μm] | Compound | inhibition of P-gp-mediated transport (P-gp) | drug-drug interaction potential by inhibition of OATP1B1 (OATP1B1) | metabolism via cytochrome P450 (cytochrome P450) | concentrations reported in the literature ([1]; Back, 2018, Moffat, 2011) | concentrations reported in the literature ([1]; Chou, 2013) [ng/mL]
1 |  |  |  |  | CC(C)(Oc1ccc(C(=O)c2ccc(Cl)cc2)cc1)C(=O)O [fenofibric acid] | do not significantly inhibit P-gp-mediated transport | do not have a potential to cause a clinically significant drug-drug interaction by inhibition of OATP1B1 | are not metabolized via cytochrome P450 | 3.17-30 μm/mL | 
2 |  |  |  |  | CC(C)c1c(C(=O)Nc2ccccc2)c(-c2ccccc2)c(-c2ccc(F)cc2)n1CC[C@@H](O)C[C@@H](O)CC(=O)O [atorvastatin] |  |  |  |  | 2.5 to 50.1
3 | less than 30 μm | ≤ 0.95 | ≤ 5.35 | ≤ 11.28 | CC(C)OC(=O)C(C)(C)Oc1ccc(C(=O)c2ccc(Cl)cc2)cc1 [fenofibrate] | do not significantly inhibit P-gp-mediated transport | do not have a potential to cause a clinically significant drug-drug interaction by inhibition of OATP1B1 | are not metabolized via cytochrome P450 |  | 
